Experiments:
Human AML MV-4-11 cells = experiment: Inhibition of cell proliferation in MV4-11 cells (CellTiter Aqueous One); assay type: cell-based; settings: 72 h
Procedure: In this example, cell titer in MV4-11 cells were quantitated to measure the inhibition of proliferation when treated with a compound of the present disclosure.
MV4-11 cells (CRL-9591) were plated at a density of 5×10^4 cells per well in 96 well flat bottom plates and treated with increasing concentrations of test compound or DMSO (0.1%) in IMDM media containing 10% FBS and penicillin/streptomycin. Triplicate wells were used for each concentration and a well containing only media was used as a control. Plates were incubated at 37° C., 5% CO2 for 72 h before adding 20 μL of the CellTiter Aqueous One Solution (Promega) to each well and incubated at 37° C., 5% CO2 for an additional 3-4 h. The absorbance was read at 490 nm in a spectrophotometer and the percentage of cell titer relative to DMSO-treated cells was calculated after correcting for background by subtracting the blank well's signal. IC50 values were calculated using the Graph Pad Prism software.

[1] = tested on: c-myc in Human AML MV4-11 cells; experiment: Inhibition of c-MYC expression (mRNA, real-time PCR) in MV4-11 cells; assay type: cell-based; settings: 3 h, mRNA by real-time PCR
Procedure: MV4-11 cells (CRL-9591) were plated at a density of 2.5×10^4 cells per well in 96 well U-bottom plates and treated with increasing concentrations of test compound or DMSO (0.1%) in IMDM media containing 10% FBS and penicillin/streptomycin, and incubated for 3 h at 37° C. Triplicate wells were used for each concentration. Cells were pelleted by centrifugation and harvested using the mRNA Catcher PLUS kit according to manufacturer's instructions. The eluted mRNA isolated was then used in a one-step quantitative real-time PCR reaction, using components of the RNA UltraSense™ One-Step Kit (Life Technologies) together with Applied Biosystems TaqMan® primer-probes for cMYC and Cyclophilin. Real-time PCR plates were run on a ViiA™7 real time PCR machine (Applied Biosystems), data was analyzed, normalizing the Ct values for hMYC to an internal control, prior to determining the fold expression of each sample, relative to the control.

[2] = biological target: T1, Brd4 bromodomain 1 (BRD4(1)) (Homo sapiens, UniProt O60885); experiment: Inhibition of tetra-acetylated histone H4 binding to Brd4 bromodomain 1 (HTRF/FRET); settings: tetra-acetylated histone H4 peptide, His-tagged bromodomain 200 nM, 2 h
T1 construct: made in house; host or cells: E. coli BL21(DE3)
Procedure: Proteins were cloned and overexpressed with a N-terminal 6×His tag, then purified by nickel affinity followed by size exclusion chromatography. Briefly, E. coli BL21(DE3) cells were transformed with a recombinant expression vector encoding N-terminally Nickel affinity tagged bromodomains from Brd2, Brd3, Brd4. Cell cultures were incubated at 37° C. with shaking to the appropriate density and induced overnight with IPTG. The supernatant of lysed cells was loaded onto Ni-IDA column for purification. Eluted protein was pooled, concentrated and further purified by size exclusion chromatography. Fractions representing monomeric protein were pooled, concentrated, aliquoted, and frozen at −80° C. for use in subsequent experiments.
Binding of tetra-acetylated histone H4 and BET bromodomains was confirmed by a Homogenous Time Resolved Fluorescence Resonance Energy Transfer (HTRF®) method. N-terminally His-tagged bromodomains (200 nM) and biotinylated tetra-acetylated histone H4 peptide (25-50 nM, Millipore) were incubated in the presence of Europium Cryptate-labeled streptavidin (Cisbio Cat. #610SAKLB) and XL665-labeled monoclonal anti-His antibody (Cisbio Cat. #61HISXLB) in a white 96 well microtiter plate (Greiner). For inhibition assays, serially diluted test compound was added to these reactions in a 0.2% final concentration of DMSO. Duplicate wells were used for each concentration tested. Final buffer concentrations were 30 mM HEPES pH 7.4, 30 mM NaCl, 0.3 mM CHAPS, 20 mM phosphate pH 7.0, 320 mM KF, 0.08% BSA. After a 2 h incubation at room temperature, fluorescence was measured at 665 and 620 nm with a SynergyH4 plate reader (Biotek). The binding inhibitory activity was shown by a decrease in 665 nm relative to 620 nm fluorescence. IC50 values were determined from a dose response curve.

Row | SMILES | IC50 (Human AML MV-4-11 cells) [nM] | IC50 [1] [nM] | IC50 [2] [nM]
1 | Cc1noc(C)c1-c1cc(-c2cccc(C#N)c2C)c2c(c1)[nH]c(=O)n2C [Example Compound 14, 3-(6-(3,5-dimethylisoxazol-4-yl)-3-methyl-2-oxo-2,3-dihydro-1H-benzo[d]imidazol-4-yl)-2-methylbenzonitrile] | 300 to 3000 | ≤ 300 | ≤ 300
2 | Cc1noc(C)c1-c1cc(-c2c(C)noc2C)c2c(c1)n(C)c(=O)n2C [Example Compound 15, 4,6-bis(3,5-dimethylisoxazol-4-yl)-1,3-dimethyl-1H-benzo[d]imidazol-2(3H)-one] | 300 to 3000 | 300 to 3000 | ≤ 300
3 | COc1ccncc1-c1cc(-c2c(C)noc2C)cc2[nH]c(=O)n(C)c12 [Example Compound 17, 5-(3,5-dimethylisoxazol-4-yl)-7-(4-methoxypyridin-3-yl)-1-methyl-1H-benzo[d]imidazol-2(3H)-one] | 300 to 3000 | ≤ 300 | ≤ 300
4 | Cc1ccncc1-c1cc(-c2c(C)noc2C)cc2[nH]c(=S)[nH]c12 [Example Compound 24, 6-(3,5-dimethylisoxazol-4-yl)-4-(4-methylpyridin-3-yl)-1H-benzo[d]imidazole-2-thiol] | 300 to 3000 | ≤ 300 | ≤ 300
5 | Cc1ccc(C#N)cc1-c1cc(-c2c(C)noc2C)cc2[nH]c(=S)[nH]c12 [Example Compound 25, 3-(6-(3,5-dimethylisoxazol-4-yl)-2-thioxo-2,3-dihydro-1H-benzo[d]imidazol-4-yl)-4-methylbenzonitrile] | 300 to 3000 | ≤ 300 | ≤ 300

Results, then the compound that gave them:

Row | IC50 (Human AML MV-4-11 cells) [nM] | IC50 [1] [nM] | IC50 [2] [nM] | SMILES
6 | 300 to 3000 | 300 to 3000 | 300 to 3000 | Cc1noc(C)c1-c1cc(-c2cnc3ccccc3c2)c2c(c1)[nH]c(=O)n2C [Example Compound 36, 5-(3,5-dimethylisoxazol-4-yl)-1-methyl-7-(quinolin-3-yl)-1H-benzo[d]imidazol-2(3H)-one]
7 | 300 to 3000 | 300 to 3000 | 300 to 3000 | Cc1noc(C)c1-c1cc(-c2ccccc2Cl)c2c(c1)[nH]c(=O)n2C [Example Compound 37, 7-(2-chlorophenyl)-5-(3,5-dimethylisoxazol-4-yl)-1-methyl-1H-benzo[d]imidazol-2(3H)-one]
8 |  |  | ≤ 300 | COc1ccc(F)c(-c2cc(-c3c(C)noc3C)cc3[nH]c(=O)n(C)c23)c1 [Example Compound 41, 5-(3,5-dimethylisoxazol-4-yl)-7-(2-fluoro-5-methoxyphenyl)-1-methyl-1H-benzo[d]imidazol-2(3H)-one]
9 |  |  | ≤ 300 | COc1ccc(Cl)cc1-c1cc(-c2c(C)noc2C)cc2[nH]c(=O)n(C)c12 [Example Compound 42, 7-(5-chloro-2-methoxyphenyl)-5-(3,5-dimethylisoxazol-4-yl)-1-methyl-1H-benzo[d]imidazol-2(3H)-one]
10 |  |  | 300 to 3000 | COc1cccc(-c2cc(-c3c(C)noc3C)cc3[nH]c(=O)n(C)c23)c1F [Example Compound 43, 5-(3,5-dimethylisoxazol-4-yl)-7-(2-fluoro-3-methoxyphenyl)-1-methyl-1H-benzo[d]imidazol-2(3H)-one]
11 |  |  | ≤ 300 | Cc1noc(C)c1-c1cc(-c2ccc3ocnc3c2)c2c(c1)[nH]c(=O)n2C [Example Compound 46, 7-(benzo[d]oxazol-5-yl)-5-(3,5-dimethylisoxazol-4-yl)-1-methyl-1H-benzo[d]imidazol-2(3H)-one]

— US10226451B2, “Substituted bicyclic compounds as bromodomain inhibitors” (ZENITH EPIGENETICS LTD, priority 2013, dated 2019)
